On the set-up of data set [1]: method as in earlier work. As to conditions: based on BCS classification (20); ref (24), (26), (28), (29), (31), (34), (35), (38); cited from earlier work.
A short description of data set [2]: Relative effect of MgSt on drug apparent solubility (shake-flask, physical mixtures). As to conditions: phosphate buffer pH 6.8.
Procedure: Drug solubility studies in the absence and presence of excipient were performed in triplicate using the shake-flask method [41]. Drug excess amount and 2% w/w or 5% w/w of each excipient were weighed and placed in centrifuge tubes. […] The physical mixtures were vortexed for 3 min. Five millilitres of each medium was added in the tubes and the samples were placed in a shaking water bath (37°C, 200 strokes per minute (spm)). […] Filter adsorption studies were performed prior in triplicate for each drug. […] Filtered samples were further diluted (if needed) with the corresponding medium and analysed by HPLC (Supplementary Table I). […] Drug quantification was made based on calibration curves. Standards were formulated from concentrated stock solutions consisting of drug dissolved in MeOH. As changes in the pH of solutions by the presence of the dissolved drug [34] or MgSt [43, 44] may affect drug solubility, the pH of samples after the completion of each experiment was measured. Drug solubility was calculated based on the sample drug concentration measured.
The relative effect (RE) of each excipient on drug apparent solubility was calculated based on Eq.

The structures appear in SMILES notation.

As for `NC(=O)N1c2ccccc2C=Cc2ccccc21` [CBZ, Carbamazepine], the “Solubility (BCS-based class)” value in data set [1] was “Low (31)”. For the same compound, the entries for the “Relative effect (RE) on drug solubility at 24 h” value in data set [2] (2% Ligamed MF-2-V) and in data set [2] (2% Ligamed MF-3-V) were 29% and 27%, respectively.
With `CCC(C)n1ncn(-c2ccc(N3CCN(c4ccc(OCC5COC(Cn6cncn6)(c6ccc(Cl)cc6Cl)O5)cc4)CC3)cc2)c1=O` (centres unmarked) [ITZ, Itraconazole], the “Solubility (BCS-based class)” value in data set [1] was “Low (38)”.
As to `OCCN(CCO)c1nc(N2CCCCC2)c2nc(N(CCO)CCO)nc(N3CCCCC3)c2n1` [DPL, Dipyridamole], the “Solubility (BCS-based class)” value in data set [1] is on record as “Low (34)”.

The values above are taken from article PMC7242257, “Impact of Magnesium Stearate Presence and Variability on Drug Apparent Solubility Based on Drug Physicochemical Properties” (The AAPS Journal, 2020).
